Data: patent publication US8410112B2, “Compounds useful as inhibitors of ATR kinase” (Vertex Pharmaceuticals Incorporated, priority 2008, dated 2013)

These compounds were tested against T1, full-length ATR (Homo sapiens, UniProt Q13535) (assay: ATR Inhibition Assay (radioactive-phosphate incorporation)). Details: Ki(app); 5 nM full-length ATR, 10 μM ATP, 800 μM target peptide, 25° C.
T1 construct: in the presence of 5 nM full-length ATR
Assay type: biochemical
Summary of the method: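 Buffer was 50 mM Tris/HCl pH 7.5, 10 mM MgCl2, 1 mM DTT, with 5 nM enzyme, 10 μM [γ-33P]ATP and 800 μM target peptide at 25 °C. Compound was pre-incubated 10 min before ATP start, and the reaction was stopped after 24 h. Phosphocellulose filter capture; Ki(app) came from non-linear regression of background-corrected initial rates.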

T1 sequence (Q13535 whole entry): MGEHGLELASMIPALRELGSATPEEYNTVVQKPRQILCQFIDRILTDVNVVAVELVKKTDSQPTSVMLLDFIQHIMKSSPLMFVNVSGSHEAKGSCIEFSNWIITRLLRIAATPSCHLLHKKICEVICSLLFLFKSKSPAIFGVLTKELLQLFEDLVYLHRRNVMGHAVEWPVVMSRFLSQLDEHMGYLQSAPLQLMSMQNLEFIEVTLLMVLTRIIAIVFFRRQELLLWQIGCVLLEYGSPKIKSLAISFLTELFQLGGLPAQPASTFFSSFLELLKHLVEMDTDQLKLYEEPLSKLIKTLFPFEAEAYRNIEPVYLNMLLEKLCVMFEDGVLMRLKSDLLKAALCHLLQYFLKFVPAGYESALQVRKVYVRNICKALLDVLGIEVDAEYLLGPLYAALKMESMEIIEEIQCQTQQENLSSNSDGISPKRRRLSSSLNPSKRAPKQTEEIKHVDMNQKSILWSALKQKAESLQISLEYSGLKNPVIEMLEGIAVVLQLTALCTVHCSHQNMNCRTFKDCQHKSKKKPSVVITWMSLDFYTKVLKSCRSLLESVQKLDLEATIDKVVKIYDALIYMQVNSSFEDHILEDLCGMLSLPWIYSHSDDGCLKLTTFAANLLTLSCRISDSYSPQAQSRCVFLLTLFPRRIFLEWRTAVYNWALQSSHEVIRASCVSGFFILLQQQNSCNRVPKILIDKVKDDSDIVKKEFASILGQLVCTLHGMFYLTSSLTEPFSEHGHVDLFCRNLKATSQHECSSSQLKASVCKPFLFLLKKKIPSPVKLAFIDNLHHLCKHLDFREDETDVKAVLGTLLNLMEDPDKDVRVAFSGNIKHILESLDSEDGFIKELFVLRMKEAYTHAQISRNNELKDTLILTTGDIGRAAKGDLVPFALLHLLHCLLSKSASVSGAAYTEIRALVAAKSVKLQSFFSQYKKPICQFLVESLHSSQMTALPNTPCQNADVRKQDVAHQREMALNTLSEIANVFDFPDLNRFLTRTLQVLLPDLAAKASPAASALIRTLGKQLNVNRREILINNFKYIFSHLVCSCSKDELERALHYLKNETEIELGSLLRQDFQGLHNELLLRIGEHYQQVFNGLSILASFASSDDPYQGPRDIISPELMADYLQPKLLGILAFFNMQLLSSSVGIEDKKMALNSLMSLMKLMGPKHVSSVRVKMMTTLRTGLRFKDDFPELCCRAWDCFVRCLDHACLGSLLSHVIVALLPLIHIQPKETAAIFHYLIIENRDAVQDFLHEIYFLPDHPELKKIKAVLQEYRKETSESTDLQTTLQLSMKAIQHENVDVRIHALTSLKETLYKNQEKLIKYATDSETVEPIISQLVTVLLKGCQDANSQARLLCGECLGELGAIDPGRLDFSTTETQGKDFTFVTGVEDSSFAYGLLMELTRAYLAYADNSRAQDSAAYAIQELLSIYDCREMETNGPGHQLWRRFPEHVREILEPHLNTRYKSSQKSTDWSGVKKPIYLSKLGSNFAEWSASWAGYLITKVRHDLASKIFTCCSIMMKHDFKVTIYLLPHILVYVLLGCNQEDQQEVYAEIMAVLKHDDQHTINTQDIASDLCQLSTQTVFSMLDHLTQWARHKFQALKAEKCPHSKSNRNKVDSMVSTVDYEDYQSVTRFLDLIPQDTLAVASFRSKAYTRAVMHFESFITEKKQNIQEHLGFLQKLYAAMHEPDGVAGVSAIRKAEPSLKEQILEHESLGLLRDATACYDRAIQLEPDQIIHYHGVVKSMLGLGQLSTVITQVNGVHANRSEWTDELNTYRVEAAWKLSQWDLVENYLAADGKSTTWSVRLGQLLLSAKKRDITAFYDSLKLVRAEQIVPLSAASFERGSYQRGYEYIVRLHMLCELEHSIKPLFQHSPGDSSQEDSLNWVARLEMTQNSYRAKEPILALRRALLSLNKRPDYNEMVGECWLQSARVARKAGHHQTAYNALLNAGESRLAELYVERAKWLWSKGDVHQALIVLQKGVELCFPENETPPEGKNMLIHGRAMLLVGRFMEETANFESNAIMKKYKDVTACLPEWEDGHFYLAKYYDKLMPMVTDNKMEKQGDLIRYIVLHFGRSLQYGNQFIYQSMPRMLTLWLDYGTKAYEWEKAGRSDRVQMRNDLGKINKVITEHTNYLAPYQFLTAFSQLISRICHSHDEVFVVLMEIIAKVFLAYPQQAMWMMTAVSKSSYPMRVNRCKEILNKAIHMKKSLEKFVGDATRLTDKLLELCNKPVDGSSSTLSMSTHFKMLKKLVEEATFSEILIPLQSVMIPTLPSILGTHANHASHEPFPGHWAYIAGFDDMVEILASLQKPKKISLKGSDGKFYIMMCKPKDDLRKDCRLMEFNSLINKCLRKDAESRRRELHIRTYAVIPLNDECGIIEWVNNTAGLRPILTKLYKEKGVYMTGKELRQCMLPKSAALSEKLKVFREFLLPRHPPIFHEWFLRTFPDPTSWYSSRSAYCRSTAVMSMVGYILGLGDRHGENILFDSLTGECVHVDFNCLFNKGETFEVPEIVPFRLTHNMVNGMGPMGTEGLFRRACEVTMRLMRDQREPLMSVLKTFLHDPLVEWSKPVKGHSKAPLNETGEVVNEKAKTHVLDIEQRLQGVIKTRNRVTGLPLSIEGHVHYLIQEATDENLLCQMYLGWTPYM

Ki	Structure (SMILES)
1000 to 10000 nM	CC(=O)C1(c2ccccc2)CCN(c2cnc(N)c(-c3nc4ccc(C)cc4[nH]3)n2)CC1 [Compound I-44, 1-(1-(5-amino-6-(6-methyl-1H-benzo[d]imidazol-2-yl)pyrazin-2-yl)-4-phenylpiperidin-4-yl)ethanone]
100 to 1000 nM	CCOC(=O)N1CC=C(c2cnc(N)c(-c3nc4ccccc4[nH]3)n2)CC1 [Compound I-250, ethyl 4-(5-amino-6-(1H-benzo[d]imidazol-2-yl)pyrazin-2-yl)-5,6-dihydropyridine-1(2H)-carboxylate]
< 100 nM	Nc1ncc(C2=CCN(S(=O)(=O)C3CC3)CC2)nc1-c1nc2ccccc2[nH]1 [Compound I-93, 3-(1H-benzo[d]imidazol-2-yl)-5-(1-(cyclopropylsulfonyl)-1,2,3,6-tetrahydropyridin-4-yl)pyrazin-2-amine]
100 to 1000 nM	CCOC(=O)C1CC1c1cnc(N)c(-c2nnc(-c3ccccc3)o2)n1 (centres unmarked) [Compound I-337, Ethyl 2-(5-amino-6-(5-phenyl-1,3,4-oxadiazol-2-yl)pyrazin-2-yl)cyclopropanecarboxylate]
< 100 nM	Nc1ncc(C2=CCN(C(=O)C3CC3)CC2)nc1-c1nnc(-c2ccccc2)o1 [Compound I-285, [4-[5-amino-6-(5-phenyl-1,3,4-oxadiazol-2-yl)pyrazin-2-yl]-3,6-dihydro-2H-pyridin-1-yl]-cyclopropyl-methanone]
1000 to 10000 nM	CN(C)S(=O)(=O)N[C@H]1CCN(c2cnc(N)c(-c3nc4ccccc4[nH]3)n2)C1 [Compound I-85, (S)-N-(1-(5-amino-6-(1H-benzo[d]imidazol-2-yl)pyrazin-2-yl)pyrrolidin-3-yl)propane-2-N,N-dimethylsulfamide]
100 to 1000 nM	CCS(=O)(=O)N1CCN(c2cnc(N)c(-c3nc4cccnc4[nH]3)n2)CC1 [Compound I-56, 5-(4-(ethylsulfonyl)piperazin-1-yl)-3-(3H-imidazo[4,5-b]pyridin-2-yl)pyrazin-2-amine]
< 100 nM	CCC(CC)C(=O)N1CC=C(c2cnc(N)c(-c3nnc(-c4ccccc4)o3)n2)CC1 [Compound I-131, 1-(4-(5-amino-6-(5-phenyl-1,3,4-oxadiazol-2-yl)pyrazin-2-yl)-5,6-dihydropyridin-1(2H)-yl)-2-ethylbutan-1-one]
100 to 1000 nM	Nc1ncc(N2CCN(S(=O)(=O)c3ccccc3)CC2)nc1-c1nc2ccccc2[nH]1 [Compound I-110, 3-(1H-benzo[d]imidazol-2-yl)-5-(4-(phenylsulfonyl)piperazin-1-yl)pyrazin-2-amine]
1000 to 10000 nM	Cc1ccc2nc(-c3nc(N4CCN(c5ccccn5)CC4)cnc3N)[nH]c2c1 [Compound I-64, 3-(6-methyl-1H-benzo[d]imidazol-2-yl)-5-(4-(pyridin-2-yl)piperazin-1-yl)pyrazin-2-amine]
< 100 nM	Nc1ncc(-n2ccccc2=O)nc1-c1nc2ccccc2[nH]1 [Compound I-310, 1-(5-amino-6-(1H-benzo[d]imidazol-2-yl)pyrazin-2-yl)pyridin-2(1H)-one]
100 to 1000 nM	Nc1ncc(N2CCN(S(=O)(=O)c3cccs3)CC2)nc1-c1nnc(-c2ccccc2)o1 [Compound I-96, 3-(5-phenyl-1,3,4-oxadiazol-2-yl)-5-(4-(thiophen-2-ylsulfonyl)piperazin-1-yl)pyrazin-2-amine]
< 100 nM	Nc1ncc(C2=CCN(C(=O)c3cccnc3)CC2)nc1-c1nnc(-c2ccccc2)o1 [Compound I-129, (4-(5-amino-6-(5-phenyl-1,3,4-oxadiazol-2-yl)pyrazin-2-yl)-5,6-dihydropyridin-1(2H)-yl)(pyridin-3-yl)methanone]
< 100 nM	CNCc1ccc(-c2nnc(-c3nc(N4CC[C@@H](CNC(C)=O)C4)cnc3N)o2)cc1 [Compound I-323, N-[[(3S)-1-[5-Amino-6-[5-[4-(methylaminomethyl)phenyl]-1,3,4-oxadiazol-2-yl]pyrazin-2-yl]pyrrolidin-3-yl]methyl]acetamide]
100 to 1000 nM	CN(C)CC(=O)N1CC=C(c2cnc(N)c(-c3nnc(-c4ccccc4)o3)n2)CC1 [Compound I-134, 1-(4-(5-amino-6-(5-phenyl-1,3,4-oxadiazol-2-yl)pyrazin-2-yl)-5,6-dihydropyridin-1(2H)-yl)-2-(dimethylamino)ethanone]
1000 to 10000 nM	CCS(=O)(=O)N1CC=C(c2cnc(N)c(-c3nc4ccccn4n3)n2)CC1 [Compound I-276, 3-([1,2,4]triazolo[1,5-a]pyridin-2-yl)-5-(1-(ethylsulfonyl)-1,2,3,6-tetrahydropyridin-4-yl)pyrazin-2-amine]
< 100 nM	CCCS(=O)(=O)N1CC=C(c2cnc(N)c(-c3nc4ccccc4[nH]3)n2)CC1 [Compound I-291, 3-(1H-benzimidazol-2-yl)-5-(1-propylsulfonyl-3,6-dihydro-2H-pyridin-4-yl)pyrazin-2-amine]
100 to 1000 nM	CCS(=O)(=O)N1CCN(c2cnc(N)c(-c3nnc(-c4cccc(N)c4)[nH]3)n2)CC1 [Compound I-57, 3-(5-(3-aminophenyl)-4H-1,2,4-triazol-3-yl)-5-(4-(ethylsulfonyl)piperazin-1-yl)pyrazin-2-amine]

Ki	Structure (SMILES)
< 100 nM	CNCc1ccc(-c2nnc(-c3nc(N4CC[C@H](CNC(C)=O)C4)cnc3N)o2)cc1 [Compound I-317, N-[[(3R)-1-[5-Amino-6-[5-[4-(methylaminomethyl)phenyl]-1,3,4-oxadiazol-2-yl]pyrazin-2-yl]pyrrolidin-3-yl]methyl]acetamide]
100 to 1000 nM	CCS(=O)(=O)N1CCN(c2cnc(N)c(-c3ncc(-c4ccccc4)o3)n2)CC1 [Compound I-36, 5-(4-(ethylsulfonyl)piperazin-1-yl)-3-(5-phenyloxazol-2-yl)pyrazin-2-amine]
100 to 1000 nM	COC(=O)N1CCN(c2cnc(N)c(-c3nnc(-c4ccccc4)o3)n2)CC1 [Compound I-225, methyl 4-(5-amino-6-(5-phenyl-1,3,4-oxadiazol-2-yl)pyrazin-2-yl)piperazine-1-carboxylate]
1000 to 10000 nM	Nc1ncc(N2CCN(C(=O)N3CCCC3)CC2)nc1C(=O)Nc1ccccn1 [Compound I-239, 3-amino-N-(pyridin-2-yl)-6-(4-(pyrrolidine-1-carbonyl)piperazin-1-yl)pyrazine-2-carboxamide]
100 to 1000 nM	Cc1ccc2nc(-c3nc(N4CCN(C(=O)c5ccco5)CC4)cnc3N)[nH]c2c1 [Compound I-53, (4-(5-amino-6-(6-methyl-1H-benzo[d]imidazol-2-yl)pyrazin-2-yl)piperazin-1-yl)(furan-2-yl)methanone]
100 to 1000 nM	Nc1ncc(C2=CCN(c3ccccc3)CC2)nc1-c1nc2ccccc2[nH]1 [Compound I-159, 3-(1H-benzo[d]imidazol-2-yl)-5-(1-phenyl-1,2,3,6-tetrahydropyridin-4-yl)pyrazin-2-amine]
100 to 1000 nM	Nc1ncc(N2CCN(S(=O)(=O)c3ccoc3)CC2)nc1-c1nc2ccccc2[nH]1 [Compound I-269, 3-(1H-benzo[d]imidazol-2-yl)-5-(4-(furan-3-ylsulfonyl)piperazin-1-yl)pyrazin-2-amine]
< 100 nM	Nc1ncc(C2=CCN(S(=O)(=O)c3ccoc3)CC2)nc1-c1nnc(-c2ccccc2)o1 [Compound I-123, 5-(1-(furan-3-ylsulfonyl)-1,2,3,6-tetrahydropyridin-4-yl)-3-(5-phenyl-1,3,4-oxadiazol-2-yl)pyrazin-2-amine]
100 to 1000 nM	CC(=O)N1CCN(c2cnc(N)c(-c3nnc(-c4ccccc4)o3)n2)CC1 [Compound I-180, 1-(4-(5-amino-6-(5-phenyl-1,3,4-oxadiazol-2-yl)pyrazin-2-yl)piperazin-1-yl)ethanone]
100 to 1000 nM	Nc1ncc(N2CCN(C(=O)C3CCCCC3)CC2)nc1C(=O)Nc1ccccn1 [Compound I-256, 3-amino-6-(4-(cyclohexanecarbonyl)piperazin-1-yl)-N-(pyridin-2-yl)pyrazine-2-carboxamide]
100 to 1000 nM	CCCS(=O)(=O)N1CCN(c2cnc(N)c(-c3nc4ccccc4[nH]3)n2)CC1 [Compound I-95, 3-(1H-benzo[d]imidazol-2-yl)-5-(4-(propylsulfonyl)piperazin-1-yl)pyrazin-2-amine]
100 to 1000 nM	CCS(=O)(=O)NC1CC[C@H]2CN(c3cnc(N)c(-c4nnc(-c5ccc(CNC)cc5)o4)n3)C[C@@H]12 (stereo partly drawn) [Compound I-354, N-((3aS,6aR)-2-(5-Amino-6-(5-(4-((methylamino)methyl)phenyl)-1,3,4-oxadiazol-2-yl)pyrazin-2-yl)octahydrocyclopenta[c]pyrrol-4-yl)ethanesulfonamide]
100 to 1000 nM	Nc1ncc(N2CCN(CC(=O)N3CCOCC3)CC2)nc1-c1nnc(-c2ccccc2)o1 [Compound I-303, 2-[4-[5-amino-6-(5-phenyl-1,3,4-oxadiazol-2-yl)pyrazin-2-yl]piperazin-1-yl]-1-morpholino-ethanone]
100 to 1000 nM	Nc1ncc(C2=CCN(C(=O)N3CCCCC3)CC2)nc1-c1nc2ccccc2[nH]1 [Compound I-249, (4-(5-amino-6-(1H-benzo[d]imidazol-2-yl)pyrazin-2-yl)-5,6-dihydropyridin-1(2H)-yl)(piperidin-1-yl)methanone]
< 100 nM	Nc1ncc(C2=CCN(C(=O)N3CCCC3)CC2)nc1-c1nnc(-c2ccccc2)o1 [Compound I-226, (4-(5-amino-6-(5-phenyl-1,3,4-oxadiazol-2-yl)pyrazin-2-yl)-5,6-dihydropyridin-1(2H)-yl)(pyrrolidin-1-yl)methanone]
100 to 1000 nM	Cn1cnc(S(=O)(=O)N2CCN(c3cnc(N)c(-c4nnc(-c5ccccc5)o4)n3)CC2)c1 [Compound I-87, 5-(4-(1-methyl-1H-imidazol-4-ylsulfonyl)piperazin-1-yl)-3-(5-phenyl-1,3,4-oxadiazol-2-yl)pyrazin-2-amine]
1000 to 10000 nM	CCS(=O)(=O)N1CCN(c2cnc(N)c(-c3nnc(C4CCCCC4)o3)n2)CC1 [Compound I-72, 3-(5-cyclohexyl-1,3,4-oxadiazol-2-yl)-5-(4-(ethylsulfonyl)piperazin-1-yl)pyrazin-2-amine]
